# Assay results as given in BindingDB's records for doi:10.1021/jm0011169 (Stockholm University, 2001).
# Target: T1, Dimer of Gag-Pol polyprotein [489-587] (Human immunodeficiency virus 1, UniProt P12497)
# T1 construct: 489-587
# Assay: Protease Inhibition Assay
# Settings: pH 5; 30 °C
# Description: A fluorimetric assay was used to determine the effects of the inhibitors on HIV-1 protease. This assay used an internally quenched fluorescent peptide substrate. The measurements were performed in 96-well plates with a Fluoroscan plate reader. Excitation and emission wavelengths were 355 nm and 500 nm, respectively.
row,Structure (SMILES),Ki [nM]
1,"O=C(N[C@H]1c2ccccc2C[C@H]1O)[C@H](Sc1ccccn1)[C@H](O)[C@@H](O)[C@@H](Sc1ccccn1)C(=O)N[C@H]1c2ccccc2C[C@H]1O [N1,N6-Di[(2R)-hydroxy-(1S)-indanyl]-(2R,3R,4R,5R)-3,4-dihydroxy-2,5-di(2-pyridylsulfanyl)hexanediamide]",285
2,"O=C(N[C@H]1c2ccccc2C[C@H]1O)[C@H](Sc1ccccc1)[C@H](O)[C@@H](O)[C@@H](Sc1ccccc1)C(=O)N[C@H]1c2ccccc2C[C@H]1O [N1,N6-Di[(2R)-hydroxy-(1S)-indanyl]-(2R,3R,4R,5R)-3,4-dihydroxy-2,5-di(phenylsulfanyl)hexanediamide]",1.8
3,"C=CCS[C@@H](C(=O)N[C@H]1c2ccccc2C[C@H]1O)[C@H](O)[C@@H](O)[C@@H](SCC=C)C(=O)N[C@H]1c2ccccc2C[C@H]1O [(2R,3R,4R,5R)-3,4-dihydroxy-N,N'-bis[(1S,2R)-2-hydroxy-2,3-dihydro-1H-inden-1-yl]-2,5-bis(prop-2-en-1-ylsulfanyl)hexanediamide]",16
4,"O=C(N[C@H]1c2ccccc2C[C@H]1O)[C@H](SCc1ccccc1F)[C@H](O)[C@@H](O)[C@@H](SCc1ccccc1F)C(=O)N[C@H]1c2ccccc2C[C@H]1O [N1,N6-Di[(2R)-hydroxy-(1S)-indanyl]-(2R,3R,4R,5R)-2,5-di(2-fluorobenzylsulfanyl)-3,4-dihydroxyhexanediamide]",4.3
5,"O=C(N[C@H]1c2ccccc2C[C@H]1O)[C@H](Sc1ccccc1F)[C@H](O)[C@@H](O)[C@@H](Sc1ccccc1F)C(=O)N[C@H]1c2ccccc2C[C@H]1O [(2R,3R,4R,5R)-2,5-bis[(2-fluorophenyl)sulfanyl]-3,4-dihydroxy-N,N'-bis[(1S,2R)-2-hydroxy-2,3-dihydro-1H-inden-1-yl]hexanediamide]",2.3
6,"O=C(N[C@H]1c2ccccc2C[C@H]1O)[C@H](SCc1ccccc1)[C@H](O)[C@@H](O)[C@@H](SCc1ccccc1)C(=O)N[C@H]1c2ccccc2C[C@H]1O [N1,N6-Di[(2R)-hydroxy-(1S)-indanyl]-(2R,3R,4R,5R)-2,5-di(benzylsulfanyl)-3,4-dihydroxyhexanediamide]",2.8
